In US20210283099A1, “CDC7 KINASE INHIBITORS AND USES THEREOF” (SLOAN-KETTERING INSTITUTE FOR CANCER RESEARCH, priority 2010, published 2021):

Assays:
Assay in all cases: Cytotoxicity assay (Alamar blue)
Format in all cases: cell-based
OVCAR3 = conditions: OVCAR-3, human ovarian adenocarcinoma
Procedure: (§1) FIGS. 16A-16B. Granaticin A and Granaticin B inhibit multiple tumor types: The indicated cell lines and primary patient samples were tested against the compounds listed in standard cytotoxicity assays (12 point dose response using Alamar blue reduction as an indicator of cell viability). Assays were done in triplicate and IC50 determinations were run in 12-point serial dilutions from […] to 5 nM. […] These include ras and EGFR gatekeeper mutation containing cell lines in addition to p53 mutant cell lines and other known chemotherapy resistant cell lines. Specifically, this included multi-drug resistance phenotype (MDR-overexpressing) cell lines from multiple hematologic and solid tumor cell lines. Table 1 highlights a series of primary patient leukemia samples-both acute and chronic and treatment naïve and refractory tested against granaticins A and B and Derivatives 1 and 2 (see Examples).

H2030 = conditions: NCI-H2030, human lung adenocarcinoma, wild-type EGFR, G12C KRAS mutation, G262V P53 mutation, PTEN null
Procedure: as §1

JEKO = conditions: Human Mantle Cell Lymphoma
Procedure: as §1

KASUMI4 = conditions: Kasumi-4, Human CML transformed to acute myeloid leukemia, overexpression of EVI1
Procedure: as §1

MCF-7 = conditions: MCF7, human invasive breast ductal carcinoma, estrogen and progesterone receptor positive
Procedure: as §1

H2444 = conditions: NCI-H2444, human lung adenocarcinoma, G12V KRAS mutation
Procedure: as §1

HPLD1 = conditions: Immortalized human bronchiolar epithelial cell with SV-40 Large T antigen
Procedure: as §1

HTB15 = conditions: Human Glioblastoma (U-118MG)
Procedure: as §1

HL60 MX1 = conditions: Homo sapiens, MDR variant of HL60 selected with mitoxantrone-clone 1
Procedure: as §1

HCC4011 = conditions: Human lung adenocarcinoma, L858R EGFR mutation, wild-type KRAS
Procedure: as §1

JAQU = conditions: Homo sapiens, Patient sample of relapsed/refractory pre-B cell acute lymphoblastic leukemia
Procedure: as §1

RB355 = conditions: Human retinoblastoma
Procedure: as §1

HL60 RV = conditions: Homo sapiens, HL-60, MDR variant of HL60 selected with vincristine
Procedure: as §1

H820 = conditions: NCI-H820, human lung adenocarcinoma, Del E746-E749 and T790M EGFR mutations
Procedure: as §1

Y79 = conditions: Human retinoblastoma
Procedure: as §1

JOBL = conditions: Homo sapiens, Patient sample of relapsed/refractory acute myelogenous leukemia
Procedure: as §1

STGL = conditions: Homo sapiens, Patient sample of refractory AML with multiple chromosomal abnormalities (refractory to allogeneic BMT)
Procedure: as §1

FUUR1 = conditions: human renal cell carcinoma with the reciprocal ASPL-TFE3 fusion transcript
Procedure: as §1

PAPR = conditions: Homo sapiens, Patient sample of relapsed acute myelomonocytic leukemia
Procedure: as §1

H23 = conditions: NCI-H23, Human lung adenocarcinoma, G12c KRAS mutation, M246I P53 mutation
Procedure: as §1

JOHO = conditions: Homo sapiens, Patient sample of primary refractory AML with inv3 and monosomy 7 (refractory to allogeneic BMT)
Procedure: as §1

MCF-10A = conditions: human normal mammary epithelium
Procedure: as §1

H1650 = conditions: NCI-H1650, Human lung adenocarcinoma, DelE746-A750 EGFR mutation, wild-type RAS, PTEN null
Procedure: as §1

CWR22 = conditions: human prostate carcinoma
Procedure: as §1

H358 = conditions: NCI-H358, Human lung adenocarcinoma, G13C KRAS mutation
Procedure: as §1

HCC827 = conditions: human lung adenocarcinoma, DelE746-A750 EGFR mutation
Procedure: as §1

MAWI B = conditions: Homo sapiens, Patient sample of secondary chronic myelogenous leukemia
Procedure: as §1

H1734 = conditions: NCI-H1734, Human lung adenocarcinoma, G13C KRAS mutation
Procedure: as §1

H1975 = conditions: NCI-H1975, Human lung adenocarcinoma, T790M/L858R EGFR mutation, R273H p53 mutation, PTEN null, wild-type KRAS
Procedure: as §1

JAKL = conditions: Homo sapiens, Patient sample of CLL with trisomy of chromosome 12 and unmutated Ig heavy chain locus
Procedure: as §1

SKOV3 = conditions: SK-OV-3, Human adenocarcinoma from the ovary derived from ascites, hypodiploid
Procedure: as §1

HELA N10 = conditions: human cervical adenocarcinoma (positive for human papillomavirus infection)
Procedure: as §1

HL60 MX2 = conditions: Homo sapiens, MDR variant of HL60 selected with mitoxantrone-clone 2
Procedure: as §1

A549 = conditions: Human lung adenocarcinoma, G12S KRAS mutation
Procedure: as §1

SMILES	IC50 (OVCAR3) [nM]	IC50 (H2030) [nM]	IC50 (JEKO) [nM]	IC50 (KASUMI4) [nM]	IC50 (MCF-7) [nM]	IC50 (H2444) [nM]	IC50 (HPLD1) [nM]	IC50 (HTB15) [nM]	IC50 (HL60 MX1) [nM]	IC50 (HCC4011) [nM]	IC50 (JAQU) [nM]	IC50 (RB355) [nM]	IC50 (HL60 RV) [nM]	IC50 (H820) [nM]	IC50 (Y79) [nM]	IC50 (JOBL) [nM]	IC50 (STGL) [nM]	IC50 (FUUR1) [nM]	IC50 (PAPR) [nM]	IC50 (H23) [nM]	further results
CC1OC2CC(O)C1(O)c1c(O)c3c(c(O)c12)C(=O)C1=C(C3=O)[C@H](C)O[C@H]2CC(=O)O[C@@H]12 (some centres unmarked) [Granaticin A, granaticin A]	210	490	40	300	170	310	180	650	170	140	50	90	90	90	60	560	1880	480	990	120	IC50 (JOHO): 880 nM; IC50 (MCF-10A): 260 nM; IC50 (H1650): 290 nM; IC50 (CWR22): 90 nM; IC50 (H358): 210 nM; IC50 (HCC827): 280 nM; IC50 (MAWI B): 420 nM; IC50 (H1734): 240 nM; IC50 (H1975): 120 nM; IC50 (JAKL): 50 nM; IC50 (SKOV3): 120 nM; IC50 (HELA N10): 1270 nM; IC50 (HL60 MX2): 110 nM; IC50 (A549): 280 nM
CC1OC2CC(O[C@H]3CC[C@H](O)[C@H](C)O3)C1(O)c1c(O)c3c(c(O)c12)C(=O)C1=C(C3=O)[C@H](C)O[C@H]2CC(=O)O[C@@H]12 (some centres unmarked) [Granaticin B, granaticin B]	110	220	20	180	130	30	40	460	80	50	10	40	70	50	50	190	620	340	490	50	IC50 (JOHO): 170 nM; IC50 (MCF-10A): 240 nM; IC50 (H1650): 60 nM; IC50 (CWR22): 40 nM; IC50 (H358): 50 nM; IC50 (HCC827): 120 nM; IC50 (MAWI B): 160 nM; IC50 (H1734): 40 nM; IC50 (H1975): 30 nM; IC50 (JAKL): 10 nM; IC50 (SKOV3): 40 nM; IC50 (HELA N10): 970 nM; IC50 (HL60 MX2): 70 nM; IC50 (A549): 90 nM
